In patent US6506791B2, “Method of treatment of protozoan infections in fish” (Jacksonville State University, priority 2000, dated 2003):

How the values were obtained:
[1] = tested on: Ick theronts, both free-swimming tomites and non-ruptured cysts; experiment: Direct dosing of Ick parasites with Phloxine B, LIGHT EXPERIMENT (ambient light, lab); format: cell-based, Ichthyophthirius multifiliis
Procedure: (§1) An in vivo study was conducted involving the direct dosing of Ick parasites with Phloxine B. 1 μl of Ick theronts, both free-swimming tomites and non-ruptured cysts, and 9 μl of a Phloxine solution containing either 1000, 100, 10, 1 and 0 ppm of Phloxine B were placed into 100×15 mm tri-plate petri dishes providing 3 replicates for each treatment. 1 set of the plates was left exposed to ambient light (6 mE m^−2s^−1) for 5 hr (LIGHT EXPERIMENT), while the other set was kept in the dark for 4 hr then exposed to ambient light for 1 hr (DARK EXPERIMENT). Percent mortality was assessed, then both light and dark plates received a second dose of Phloxine B at the same concentration as before and treated in the same manner.

[2] = cited from earlier work
mouse = details: cited from earlier work
Ick [3] = experiment: Light and dark experiment with doubled exposure times (Example 2); format: cell-based, Ichthyophthirius multifiliis; details: 8 hr dark then 2 hr light or 10 hr light
Procedure: as §1
A light and dark experiment were set up following the protocol in Example 1, but exposure times were doubled—8 hr dark then 2 hr light or 10 hr light.

[4] = exposure to sunlight; cited from earlier work
rat = details: cited from earlier work
Ick [5] = experiment: LIGHT EXPERIMENT under greenhouse conditions (effect of light intensity); format: cell-based, Ichthyophthirius multifiliis
Procedure: as §1
An experiment was designed to test the effect of light intensity on the effectiveness of Phloxine B treatment of Ick. The previous experiments described in Examples 1 and 2 were conducted in the lab. The ambient light intensity in the lab was very low, 6 μmol m^−2s^−1. An experiment was conducted as following the protocol of Example 1, except the experiment was conducted in a greenhouse to better mimic natural light conditions.

[6] = tested on: Ick trophozoite stage attached to the fish host; experiment: Aquarium treatment of fish infected with Ick, microscopic examination; format: in vivo, Ichthyophthirius multifiliis; details: around 5 mg/L in aquarium, added in darkness, at least eight hours absorption, then artificial lamps
Description: The effectiveness of treatments of photoactive dyes on parasite control in a particular fish population can be determined by those skilled in the art by monitoring the general behavior of the fish (swimming, feeding, etc.) and the appearance of the parasite by microscopic examination. For example, live Ick trophozoites may be monitored using image analysis microscopy using a Image-Pro Plus V. 4.0.0.13, available from Media Cybernetics, L.P.
In one embodiment of the invention, the photoactive dye, Phloxine B, is added as a dry powder to an aquarium containing fish infected with Ick. The Phloxine B is added to achieve a final concentration of around 5 mg/L. The Phloxine B is added to the aquarium in darkness and at least eight hours of absorption is allowed before photoactivation. Photoactivation is achieved by exposing the Ick infected fish to light from artificial lamps. […] Although this particular embodiment is performed in a laboratory setting, those skilled in the art will understand that the teachings can be adapted to a commercial operation without undue experimentation.

dog = details: cited from earlier work
[7] = tested on: Ick theronts, both free-swimming tomites and non-ruptured cysts; experiment: Direct dosing of Ick parasites with Phloxine B, DARK EXPERIMENT (lab conditions); format: cell-based, Ichthyophthirius multifiliis
Procedure: as §1

humans = details: according to the FDA (1982); cited from earlier work

## O=C([O-])c1c(Cl)c(Cl)c(Cl)c(Cl)c1-c1c2cc(Br)c(=O)c(Br)c-2oc2c(Br)c([O-])c(Br)cc12.[Na+].[Na+] [Phloxine B, 2′, 4′, 5′ 7′-tetrabromo-4,5,6,7-tetrachlorofluorescein, disodium salt]
[1]; 1 ppm, 1 dose, ambient light 5 hr
  Percent mortality: No effect
[1]; 1 ppm, 2 doses, ambient light 5 hr per dose
  Percent mortality: No effect
[1]; 10 ppm, 1 dose, ambient light 5 hr
  Percent mortality: No effect
[1]; 10 ppm, 2 doses, ambient light 5 hr per dose
  Percent mortality: No effect
[1]; 100 ppm, 1 dose, ambient light 5 hr
  Percent mortality: 20% Mortality
[1]; 100 ppm, 2 doses, ambient light 5 hr per dose
  Percent mortality: 80% Mortality
[1]; 1000 ppm, 1 dose, ambient light 5 hr
  Percent mortality: 80% Mortality
[1]; 1000 ppm, 2 doses, ambient light 5 hr per dose
  Percent mortality: 100% Mortality
[1]; observation from Examples 1-3
  Uptake of the dye by free-swimming and encysted organisms: taken up both free-swimming and encysted organisms
[2]
  Water solubility: greater than 120 mg/l
mouse
  LD50: 310 mg/kg
Ick [3]
  Effect of exposure time on effectiveness of the dye: longer exposure time increased the effectiveness
[4]
  Time to degradation and detoxification: < 1 h
rat
  LD50: 8400 mg/kg
Ick [5]; 1 ppm
  Percent mortality: No effect
Ick [5]; 10 ppm, 1 dose
  Percent mortality: No effect
Ick [5]; 100 ppm, 1 dose
  Percent mortality: 50% Mortality
Ick [5]; 1000 ppm, 1 dose
  Percent mortality: 100% Mortality
[6]
  Effectiveness against trophozoite stage attached to the fish host: effective against the formerly invulnerable trophozoite stage
dog
  LD50: > 4600 mg/kg
[7]; 1 ppm, 1 dose, dark 4 hr then ambient light 1 hr
  Percent mortality: No effect
[7]; 1 ppm, 2 doses, dark 4 hr then ambient light 1 hr per dose
  Percent mortality: No effect
[7]; 10 ppm, 1 dose, dark 4 hr then ambient light 1 hr
  Percent mortality: No effect
[7]; 10 ppm, 2 doses, dark 4 hr then ambient light 1 hr per dose
  Percent mortality: No effect
[7]; 100 ppm, 1 dose, dark 4 hr then ambient light 1 hr
  Percent mortality: No effect
[7]; 100 ppm, 2 doses, dark 4 hr then ambient light 1 hr per dose
  Percent mortality: 10% Mortality
[7]; 1000 ppm, 1 dose, dark 4 hr then ambient light 1 hr
  Percent mortality: 40% Mortality
[7]; 1000 ppm, 2 doses, dark 4 hr then ambient light 1 hr per dose
  Percent mortality: 95% Mortality
humans
  Relatively non-toxic ingested amount: ≤ 1.25 mg/kg body weight
